Measured values taken from ChEMBL document CHEMBL1201862, “PubChem BioAssay data set” (2004).
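Cells were grown in 96-well plates and exposed to each compound for 48 hours at five concentrations; endpoints were interpolated linearly between bracketing concentrations, or set to the highest concentration if not reached. GI50 is the concentration that inhibits growth by half.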 Calls of active or inactive are those of the source. Rule as the data show it: active = GI50 up to about 1.1 µM and inactive = higher.

Columns and labels:
Test in all cases: NCI tumour cell line growth inhibition, 48 h
OVCAR-8 = tested on: OVCAR-8
LXFL 529 = tested on: LXFL 529
OVCAR-5 = tested on: OVCAR-5
OVCAR-4 = tested on: OVCAR-4
NCI-H23 = tested on: NCI-H23
SF-268 = tested on: SF-268
HT-29 = tested on: HT-29
HCT-116 = tested on: HCT-116
TK-10 = tested on: TK-10
MOLT-4 = tested on: MOLT-4
SF-539 = tested on: SF-539
HL-60 = tested on: HL-60
OVCAR-3 = tested on: OVCAR-3
SNB-19 = tested on: SNB-19
HOP-62 = tested on: HOP-62
M14 = tested on: M14
CAKI-1 = tested on: CAKI-1
LOX IMVI = tested on: LOX IMVI
COLO 205 = tested on: COLO 205
KM-20L2 = tested on: KM-20L2
HCT-15 = tested on: HCT-15
XF498 = tested on: XF498
HOP-18 = tested on: HOP-18
A549 = tested on: A549
786-0 = tested on: 786-0
U-251 = tested on: U-251
UACC-62 = tested on: UACC-62
HOP-92 = tested on: HOP-92
KM12 = tested on: KM12
SK-MEL-28 = tested on: SK-MEL-28
IGROV-1 = tested on: IGROV-1
M19-MEL = tested on: M19-MEL
HCC 2998 = tested on: HCC 2998
SF-295 = tested on: SF-295
EKVX = tested on: EKVX
SNB-75 = tested on: SNB-75
SK-MEL-2 = tested on: SK-MEL-2
UACC-257 = tested on: UACC-257
ACHN = tested on: ACHN
CCRF-CEM = tested on: CCRF-CEM
DMS-114 = tested on: DMS-114
Malme-3M = tested on: Malme-3M
SN12C = tested on: SN12C
SW-620 = tested on: SW-620
SR = tested on: SR
A498 = tested on: A498
NCI-H226 = tested on: NCI-H226
RPMI-8226 = tested on: RPMI-8226
SNB-78 = tested on: SNB-78
RXF 393 = tested on: RXF 393
NCI-H460 = tested on: NCI-H460
UO-31 = tested on: UO-31
K562 = tested on: K562
Hs-578T = tested on: Hs-578T
SK-OV-3 = tested on: SK-OV-3
NCI-H522 = tested on: NCI-H522
DMS-273 = tested on: DMS-273
MDA-N = tested on: MDA-N
MDA-MB-435 = tested on: MDA-MB-435
DLD-1 = tested on: DLD-1
BT-549 = tested on: BT-549
DU-145 = tested on: DU-145
PC-3 = tested on: PC-3
MCF7 = tested on: MCF7
MDA-MB-231 = tested on: MDA-MB-231
NCI/ADR-RES = tested on: NCI/ADR-RES
T47D = tested on: T47D
SK-MEL-5 = tested on: SK-MEL-5

**Q.** `CC[C@@H]1C[C@@H]2CN3CCc4c([nH]c5ccc(OC)cc45)C(COC(=O)c4ccc(OC)c(OC)c4)(C2)C13` was tested. Which GI50 (OVCAR-8) did it give?
**A.** 31.6 µM (inactive)

**Q.** And the GI50 (LXFL 529)?
**A.** 10.6 µM (inactive)

**Q.** And the GI50 (OVCAR-5)?
**A.** 22.6 µM (inactive)

**Q.** What about the GI50 (OVCAR-4) of the same compound?
**A.** 26.4 µM (inactive)

**Q.** What about the GI50 (NCI-H23) of the same compound?
**A.** 10.3 µM (inactive)

**Q.** What about the GI50 (SF-268) of the same compound?
**A.** 33 µM (inactive)

**Q.** And the GI50 (HT-29)?
**A.** 7.82 µM (inactive)

**Q.** What about the GI50 (HCT-116) of the same compound?
**A.** 4.34 µM (inactive)

**Q.** What about the GI50 (TK-10) of the same compound?
**A.** 32.2 µM (inactive)

**Q.** What about the GI50 (MOLT-4) of the same compound?
**A.** 11.4 µM (inactive)

**Q.** What about the GI50 (SF-539) of the same compound?
**A.** 18.8 µM (inactive)

**Q.** And the GI50 (HL-60)?
**A.** 14.5 µM (inactive)

**Q.** What about the GI50 (OVCAR-3) of the same compound?
**A.** 16.1 µM (inactive)

**Q.** What about the GI50 (SNB-19) of the same compound?
**A.** 37.6 µM (inactive)

**Q.** What about the GI50 (HOP-62) of the same compound?
**A.** 22.9 µM (inactive)

**Q.** And the GI50 (M14)?
**A.** 14.9 µM (inactive)

**Q.** What about the GI50 (CAKI-1) of the same compound?
**A.** 19.5 µM (inactive)

**Q.** And the GI50 (LOX IMVI)?
**A.** 12.7 µM (inactive)

**Q.** What about the GI50 (COLO 205) of the same compound?
**A.** 21.2 µM (inactive)

**Q.** And the GI50 (KM-20L2)?
**A.** 15.6 µM (inactive)

**Q.** What about the GI50 (HCT-15) of the same compound?
**A.** 18.4 µM

**Q.** And the GI50 (XF498)?
**A.** 17.3 µM (inactive)

**Q.** And the GI50 (HOP-18)?
**A.** 58.2 µM (inactive)

**Q.** And the GI50 (A549)?
**A.** 33 µM (inactive)

**Q.** What about the GI50 (786-0) of the same compound?
**A.** 25.2 µM (inactive)

**Q.** What about the GI50 (U-251) of the same compound?
**A.** 16.5 µM (inactive)

**Q.** What about the GI50 (UACC-62) of the same compound?
**A.** 13.7 µM (inactive)

**Q.** And the GI50 (HOP-92)?
**A.** 10 µM (inactive)

**Q.** And the GI50 (KM12)?
**A.** 23.8 µM (inactive)

**Q.** What about the GI50 (SK-MEL-28) of the same compound?
**A.** 43.3 µM (inactive)

**Q.** What about the GI50 (IGROV-1) of the same compound?
**A.** 20.2 µM (inactive)

**Q.** And the GI50 (M19-MEL)?
**A.** 36 µM (inactive)

**Q.** What about the GI50 (HCC 2998) of the same compound?
**A.** 20.3 µM (inactive)

**Q.** And the GI50 (SF-295)?
**A.** 19.5 µM (inactive)

**Q.** What about the GI50 (EKVX) of the same compound?
**A.** 53.5 µM (inactive)

**Q.** What about the GI50 (SNB-75) of the same compound?
**A.** 24.5 µM (inactive)

**Q.** And the GI50 (SK-MEL-2)?
**A.** > 10 µM (inactive)

**Q.** What about the GI50 (UACC-257) of the same compound?
**A.** 18.3 µM (inactive)

**Q.** And the GI50 (ACHN)?
**A.** 24.4 µM (inactive)

**Q.** And the GI50 (CCRF-CEM)?
**A.** 14.3 µM (inactive)

**Q.** What about the GI50 (DMS-114) of the same compound?
**A.** 11.6 µM (inactive)

**Q.** And the GI50 (Malme-3M)?
**A.** > 10 µM (inactive)

**Q.** What about the GI50 (SN12C) of the same compound?
**A.** 17.4 µM (inactive)

**Q.** What about the GI50 (SW-620) of the same compound?
**A.** 14.6 µM (inactive)

**Q.** And the GI50 (SR)?
**A.** 13.6 µM (inactive)

**Q.** What about the GI50 (A498) of the same compound?
**A.** 21 µM (inactive)

**Q.** And the GI50 (NCI-H226)?
**A.** 10.4 µM (inactive)

**Q.** What about the GI50 (RPMI-8226) of the same compound?
**A.** 16.1 µM (inactive)

**Q.** What about the GI50 (SNB-78) of the same compound?
**A.** 19.6 µM (inactive)

**Q.** What about the GI50 (RXF 393) of the same compound?
**A.** 14.2 µM (inactive)

**Q.** What about the GI50 (NCI-H460) of the same compound?
**A.** 21.3 µM (inactive)

**Q.** What about the GI50 (UO-31) of the same compound?
**A.** 16.8 µM (inactive)

**Q.** What about the GI50 (K562) of the same compound?
**A.** 7.91 µM (inactive)

**Q.** What does the source list for `COc1cc2c(c(OC)c1OC)-c1ccc(SC)c(=O)cc1C(NC=O)CC2` (stereo not given)?
**A.** GI50 (Hs-578T): < 10 nM (active); GI50 (OVCAR-8): < 0.01 µM (active); GI50 (OVCAR-5): 0.164 µM (active); GI50 (OVCAR-4): 66.4 µM (inactive); GI50 (SK-OV-3): 37.1 nM (active); GI50 (NCI-H23): < 0.01 µM (active); GI50 (SF-268): < 0.01 µM (active); GI50 (NCI-H522): < 10 nM (active); GI50 (HT-29): < 0.01 µM (active); GI50 (HCT-116): < 0.01 µM (active); GI50 (TK-10): 2.02 µM (inactive); GI50 (MOLT-4): < 0.01 µM (active); GI50 (SF-539): < 0.01 µM (active); GI50 (DMS-273): < 10 nM (active); GI50 (HL-60): < 0.01 µM (active); GI50 (MDA-N): < 10 nM (active); GI50 (OVCAR-3): < 0.01 µM (active); GI50 (MDA-MB-435): < 10 nM (active); GI50 (SNB-19): 0.0344 µM (active); GI50 (HOP-62): < 0.01 µM (active); GI50 (M14): < 0.01 µM (active); GI50 (DLD-1): < 10 nM (active); GI50 (CAKI-1): 0.0183 µM (active); GI50 (BT-549): 239 nM (active); GI50 (LOX IMVI): < 0.01 µM (active); GI50 (COLO 205): < 0.01 µM (active); GI50 (DU-145): < 10 nM (active); GI50 (KM-20L2): < 0.01 µM (active); GI50 (HCT-15): < 0.01 µM; GI50 (XF498): < 0.01 µM (active); GI50 (HOP-18): > 45.7 µM (inactive); GI50 (A549): < 0.01 µM (active); GI50 (PC-3): < 10 nM (active); GI50 (786-0): < 0.01 µM (active); GI50 (U-251): < 0.01 µM (active); GI50 (UACC-62): < 0.01 µM (active); GI50 (HOP-92): < 0.01 µM (active); GI50 (KM12): < 0.01 µM (active); GI50 (SK-MEL-28): 0.462 µM (active); GI50 (IGROV-1): < 0.01 µM (active); GI50 (M19-MEL): < 0.01 µM (active); GI50 (HCC 2998): < 0.01 µM (active); GI50 (SF-295): < 0.01 µM (active); GI50 (EKVX): 3.6 µM (inactive); GI50 (SNB-75): < 0.0442 µM (active); GI50 (SK-MEL-2): < 0.01 µM (active); GI50 (MCF7): < 10.7 nM (active); GI50 (UACC-257): 0.249 µM (active); GI50 (ACHN): < 0.01 µM (active); GI50 (MDA-MB-231): < 10 nM (active); GI50 (CCRF-CEM): 0.015 µM (active); GI50 (DMS-114): < 0.01 µM (active); GI50 (Malme-3M): < 0.01 µM (active); GI50 (SN12C): < 0.01 µM (active); GI50 (NCI/ADR-RES): 39.3 nM (active); GI50 (SW-620): < 0.0275 µM (active); GI50 (T47D): 54.1 µM (inactive); GI50 (SR): < 0.01 µM (active); GI50 (A498): < 0.01 µM (active); GI50 (NCI-H226): 0.0465 µM (active); GI50 (RPMI-8226): < 0.01 µM (active); GI50 (SNB-78): < 0.01 µM (active); GI50 (SK-MEL-5): < 10 nM (active); GI50 (RXF 393): 0.0463 µM (active); GI50 (NCI-H460): < 0.01 µM (active); GI50 (UO-31): 0.0188 µM (active); GI50 (K562): < 0.01 µM (active)
